Test results reported in PubChem BioAssay (NCI).
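Exposure lasted 48 hours, with cells grown in 96-well plates and compounds tested at five concentrations. GI50: concentration for 50% inhibition of growth. Definition used: TGI = concentration required for complete inhibition of growth.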

Key:
Test in all cases: DTP human tumour cell line panel, 48 h
[1] = tested on: COLO 205 colon
[2] = tested on: DU-145 prostate
[3] = tested on: MDA-MB-435
[4] = tested on: HOP-92 NSCLC
[5] = tested on: NCI-H460 lung
[6] = tested on: MCF7 breast
[7] = tested on: A549 NSCLC
[8] = tested on: MALME-3M melanoma
[9] = tested on: SK-MEL-2 melanoma
[10] = tested on: M14 melanoma
[11] = tested on: 786-0 renal

Structure (SMILES) | TGI [1] | TGI [2] | TGI [3] | TGI [4] | TGI [5] | TGI [6] | TGI [7] | TGI [8] | TGI [9] | TGI [10] | TGI [11] | GI50 [2] | GI50 [3] | GI50 [5] | GI50 [6] | GI50 [7] | GI50 [9] | GI50 [4] | GI50 [8]
C=CCn1c(=O)c(C)cn(COCCO)c1=O | > 100 µM | > 100 µM | > 100 µM | > 100 µM | > 100 µM | > 100 µM | > 100 µM | > 100 µM | > 100 µM | > 100 µM |  |  |  |  |  |  |  |  | 
N#CCCN(CCC#N)c1ccc(/C=C2\N=C(c3ccccc3)N(c3ccc(F)cc3)C2=O)cc1 | > 100 µM | > 100 µM | > 100 µM | > 100 µM | > 100 µM | > 100 µM | > 100 µM | > 100 µM | > 100 µM | > 100 µM | > 100 µM |  |  |  |  |  |  |  | 
c1ccc(-c2csc3c4ccccc4c4ccccc4[n+]23)cc1 | 7.73 µM |  |  | 24.9 µM | 10.2 µM |  | 19.5 µM | 3.21 µM | 7.71 µM | 22 µM | 21 µM |  |  |  |  |  |  |  | 
OC1[C@@H]2[C@@H](O)CCCN2C[C@@H](O)[C@H]1O (stereo not given in full) | > 100 µM | > 100 µM | > 100 µM | > 100 µM | > 100 µM | > 100 µM | > 100 µM | > 100 µM | > 100 µM | > 100 µM | > 100 µM |  |  |  |  |  |  |  | 
Fc1ccc(C(OCCN2CCN(CCCc3ccccc3)CC2)c2ccc(F)cc2)cc1 | 10.1 µM | 19.5 µM | 14 µM | 11.6 µM | 15.3 µM | 18.9 µM | 14 µM | 17 µM | 12.2 µM | 11.3 µM |  |  |  |  |  |  |  |  | 
C[C@H](c1ccccc1)N1C(=O)[C@@H](O)[C@H]1[C@H](CO)OCc1ccccc1 | > 100 µM | > 100 µM | > 100 µM | > 100 µM |  | > 100 µM | > 100 µM | > 100 µM | > 100 µM | > 100 µM | > 100 µM |  |  |  |  |  |  |  | 
Nc1n(CC(=O)c2ccccc2)nc2sc(-c3ccccc3)n[n+]12 | 47 µM | 87.7 µM | 8.95 µM |  | 30.5 µM | > 100 µM | 90.6 µM |  | > 100 µM | > 100 µM | 48.4 µM |  |  |  |  |  |  |  | 
CN1CCC(CNc2cc(C3(C(=O)Nc4cc(C(=O)Nc5ccc(Cl)c(C(F)(F)F)c5)ccc4F)CC3)ncn2)CC1 |  | 15.8 µM | 4.04 µM |  | 5.38 µM | 5.24 µM | 5.54 µM |  | 4.02 µM |  |  | 3.99 µM | 1.84 µM | 2.13 µM | 1.97 µM | 2.29 µM | 1.9 µM |  | 
Cn1c(=O)c2c(nc3n(CC(O)CCl)c(=O)ccn23)n(C)c1=O (stereo not given) | > 100 µM | > 100 µM | > 100 µM | > 100 µM | > 100 µM | > 100 µM | > 100 µM |  | > 100 µM | > 100 µM | > 100 µM |  |  |  |  |  |  |  | 
C=CCC1(C#N)C(=S)NC2=C(C(=O)CC(C)(C)C2)C1c1ccccc1 (stereo not given) | > 100 µM | 40.5 µM | > 100 µM | 90.2 µM |  |  | > 100 µM |  | > 100 µM | > 100 µM | > 100 µM |  |  |  |  |  |  |  | 
CNC(C)(C)Cc1ccc(Cl)cc1 | > 100 µM |  |  |  | > 100 µM |  | > 100 µM | > 100 µM | > 100 µM | > 100 µM | > 100 µM |  |  |  |  |  |  |  | 
O=C1c2cccc([N+](=O)[O-])c2C(=O)N1Cc1ccccc1 | > 100 µM | > 100 µM | > 100 µM | > 100 µM | > 100 µM | > 100 µM | > 100 µM |  | > 100 µM | > 100 µM | > 100 µM |  |  |  |  |  |  |  | 
C=CCSC1=N/C(=C\c2ccc(Cl)cc2)C(=O)N1CC=C | > 100 µM | > 100 µM | > 100 µM | 82.2 µM | > 100 µM | 46.2 µM | > 100 µM |  | 76 µM | > 100 µM | > 100 µM |  |  |  |  |  |  |  | 
CCN(CCCOc1ccccc1)CCN(CC)CCCOc1ccccc1 | 24.5 µM | 23.9 µM | 34.2 µM |  | 34.9 µM | 57.3 µM | 28.7 µM | 32 µM | 32.3 µM | 34.6 µM | 50.7 µM |  |  |  |  |  |  |  | 
O=C(/C=C(/C=C/c1ccc2[nH]ccc2c1)OB(F)F)/C=C/c1ccc2[nH]ccc2c1 |  | 4.2 µM |  | > 100 µM |  | 15 µM |  | > 100 µM | 86.2 µM |  |  | 1.64 µM |  |  | 0.376 µM |  | 4.6 µM | 2.68 µM | 2.62 µM
Cc1ccc2c(c1)-c1nc(N)c(C#N)c(-c3ccc(Cl)cc3)c1CCS2(=O)=O | 65.6 µM | > 100 µM | > 100 µM | > 100 µM | > 100 µM |  | > 100 µM | > 100 µM | > 100 µM |  | > 100 µM |  |  |  |  |  |  |  | 
COc1cc2c(c(O)c1O)C(=O)C1CCC(=O)N1C2c1cccc2ccccc12 (stereo not given) | > 50 µM | > 50 µM | > 50 µM | > 50 µM | > 50 µM | > 50 µM | > 50 µM |  | > 50 µM | > 50 µM | > 50 µM |  |  |  |  |  |  |  | 
COC(=O)C1(NC(=O)C(CC(=O)OCc2ccccc2)NC(=O)OCc2ccccc2)CCCCCC1 (stereo not given) | 47.3 µM | > 100 µM | 74.4 µM | > 100 µM | > 100 µM | > 100 µM | > 100 µM | > 100 µM |  | > 100 µM | > 100 µM |  |  |  |  |  |  |  | 
C[C@@]1(O)C2CC3CC1(c1ccccc1)CC(/C3=N/O)/C2=N\O (stereo not given in full) | > 100 µM | > 100 µM | > 100 µM | > 100 µM | > 100 µM |  | > 100 µM | > 100 µM | > 100 µM | > 100 µM | > 100 µM |  |  |  |  |  |  |  | 
O=C(Nc1ccccc1F)c1cc2ccc(O)cc2oc1=Nc1cccc(F)c1 | 77.3 µM | 40.5 µM | 35.7 µM |  | 57.3 µM | 95.1 µM | 33.7 µM | 98.7 µM | 62.6 µM | 38.6 µM | 30 µM |  |  |  |  |  |  |  | 
CC(C)(C)c1ccccc1N1C(=O)c2ccc3c4c(ccc(c24)C1=O)N(c1ccccc1C(C)(C)C)C3=O | > 100 µM | > 100 µM | > 100 µM | > 100 µM | > 100 µM | > 100 µM | > 100 µM |  | > 100 µM | > 100 µM | > 100 µM |  |  |  |  |  |  |  | 
